{"source": "patent US8859463B2", "about": "“Method for controlling noxious organisms” (Sumitomo Chemical Company, Limited, priority 2009, dated 2014)", "assay_type_in_all_cases": "in vivo", "key": {"[1]": {"system": "Aulacorthum solani", "assay": "Insecticidal effect (protective value), soybean pot test, Example 1", "settings": "clothianidin none, day 6 after release", "method": "(§1) The evaluation of the insecticidal effect was performed by determining the life and death of the insects at the time of the investigation and calculating the protective value according to the following equation; Protective Value (%)=100×(1−T/C) wherein the symbols have the following meanings;\n(§2) C: The number of insects at the time of observation in an untreated section: and\n(§3) T: The number of insects at the time of observation in a treated section.\n(§4) Thereafter, the test pot was placed in a greenhouse."}, "[2]": {"system": "Ipomoea hederacea", "assay": "Herbicidal activity, corn pot test, Example 16", "settings": "azole seed treatment none, flumioxazin 50 g/ha, twelve days after sowing", "method": "In a glass container measuring 60 mm in inner diameter and 20 mm in height, 8 μl of a prothioconazole emulsifiable concentrate (emulsifiable concentrate containing 25% prothioconazole, manufactured by Bayer Crop Science Inc. under the trade name of Proline) and 20 corn seeds were placed. The prothioconazole emulsifiable concentrate was adhered to the corn seeds by shaking this plastic cup by hand. In the same manner, 8 μl of a difenoconazole emulsifiable concentrate (emulsifiable concentrate containing 25% difenoconazole, manufactured by Syngenta under the trade name of Score) was adhered to 20 corn seeds. In the same manner, 50 mg of a tebuconazole suspension (suspension containing 20% tebuconazole, manufactured by Hokko Chemical Industry under the trade name of ONLY ONE Flowable) was adhered to 20 corn seeds.\nA plastic pot measuring 194 mm in inner diameter and 176 mm in height was filled with the soil. In this pot, 3 corn seeds were sown per 1 pot and 10 seeds of Ipomoea hederacea were sown per 1 pot. […]"}, "[3]": {"system": "Spodoptera litura", "assay": "Insecticidal effect (protective value), corn pot test, Example 4", "settings": "clothianidin none, day 3 after release", "method": "as §1, §2, §3\nIn addition, the clothianidin suspension was attached to the corn seeds in a similar manner except that it was used in an amount of 217.5 μL.\nThereafter, the test pot was placed in a greenhouse. On day 22 after corn sowing, 10 fourth-instar larvae of Spodoptera litura were released in the pot and the whole pot was then covered with a nylon cloth.\nOn day 3 after release of Spodoptera litura, the insecticidal effect was examined."}, "[4]": {"system": "Ipomoea hederacea", "assay": "Herbicidal activity, soybean pot test, Example 75", "settings": "metalaxyl compound none, flumioxazin 50 g/ha, twelve days after sowing", "method": "(§5) In a glass container measuring 60 mm in inner diameter and 20 mm in height, 12 mg of a metalaxyl emulsifiable concentrate (emulsifiable concentrate containing 25% metalaxyl, manufactured by Syngenta under the trade name of Subdue) and 20 soybean seeds were placed. After capping this glass container, the metalaxyl emulsifiable concentrate was adhered to the soybean seeds by shaking the glass container by hand. In the same manner, 47 mg of the metalaxyl emulsifiable concentrate was adhered to the soybean seeds. In the same manner, 9 mg of a metalaxyl-M emulsifiable concentrate (emulsifiable concentrate containing 33.3% metalaxyl-M manufactured by Syngeta under the trade name of Apron XL) was adhered to the soybean seeds. In the same manner, 40 mg of the metalaxyl-M emulsifiable concentrate was adhered to the soybean seeds.\n(§6) A plastic pot measuring 194 mm in inner diameter and 176 mm in height was filled with the soil. In this pot, 2 soybean seeds were sown per 1 pot, 7 seeds of Ipomoea hederacea were sown per 1 pot, and 10 seeds of Digitaria ciliaris were sown per 1 pot. […]"}, "[5]": {"system": "Digitaria ciliaris", "assay": "Herbicidal activity, soybean pot test, Example 75", "settings": "metalaxyl compound none, flumioxazin 50 g/ha, twelve days after sowing", "method": "as §5, §6"}, "[6]": {"system": "soybean", "assay": "Phytotoxicity to soybean, Example 6", "settings": "clothianidin none; flumioxazin 25 g/ha; day 11 after sowing", "source_text": "(§7) A soil was packed in a 1/5000a Wagner pot. The above soybean seeds were sown in the Wagner pot at a rate of two seeds per pot, and the seeds of Ipomoea hederacea were sown in the pot at a rate of three seeds per pot.\n(§8) On day 11 after sowing of the seeds of soybean and Ipomoea hederacea, the herbicidal effect and phytotoxicity were examined."}, "[7]": {"system": "Ipomoea hederacea", "assay": "Herbicidal effect, soybean Wagner pot test, Example 6", "settings": "clothianidin none; flumioxazin 25 g/ha; day 11 after sowing; scale 0 to 100", "source_text": "as §7, §8"}, "[8]": {"system": "Aulacorthum solani", "assay": "Insecticidal effect (protective value), soybean pot test, Example 2", "settings": "thiamethoxam none; flumioxazin 50 g/ha; day 6 after release", "method": "as §1, §2, §3, §4"}}}
{"smiles": "C#CCN1C(=O)COc2cc(F)c(N3C(=O)C4=C(CCCC4)C3=O)cc21", "note": "[Flumioxazin, flumioxazin]", "values": [{"measurement": "Protective Value", "setting": "[1]; flumioxazin 12.5 g/ha", "value": 0, "unit": "%"}, {"measurement": "Protective Value", "setting": "[1]; flumioxazin 25 g/ha", "value": 0, "unit": "%"}, {"measurement": "Herbicidal activity on Ipomoea hederacea", "setting": "[2]", "value": 88}, {"measurement": "Protective Value", "setting": "[3]; flumioxazin 12.5 g/ha", "value": 0, "unit": "%"}, {"measurement": "Protective Value", "setting": "[3]; flumioxazin 50 g/ha", "value": 5, "unit": "%"}, {"measurement": "Herbicidal activity Ipomoea hederacea", "setting": "[4]", "value": 55}, {"measurement": "Herbicidal activity Digitaria ciliaris", "setting": "[5]", "value": 75}, {"measurement": "Phytotoxicity to Soybean", "setting": "[6]", "value": "No harm"}, {"measurement": "Evaluation of Effect on Weeds", "setting": "[7]", "value": 25}, {"measurement": "Protective Value", "setting": "[8]", "value": 0, "unit": "%"}]}
